Test results taken from ChEMBL document CHEMBL1201862, “PubChem BioAssay data set” (2004).
Activity calls are given as the source filed them.

Assays:
HEK293 = experiment: viability loss in HEK293T cells – cell-based, ATP luminescence, cherry-pick samples, cytotoxicity control, dose response (AID 687005); type: functional; details: Homo sapiens;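 also: cells exposed to compound for 48 hours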
[1] = HEK293 Cytotoxicity Assay Measured in Cell-Based System Using Plate Reader - 7071-01_Inhibitor_Dose_CherryPick_Activity_Set2.; type: functional
Beta Lactamase [2] = target: T1, Beta Lactamase (Pseudomonas aeruginosa, UniProt Q932Y6); experiment: concentration-dependent VIM-2 enzyme inhibition – biochemical, epi-absorbance readout, selective inhibitors, dose response (AID 1919)
Beta-lactamase [3] = target: T2, Beta-lactamase (Pseudomonas aeruginosa, UniProt Q79MP6); experiment: inhibition of IMP-1 beta-lactamase activity – biochemical, epi-absorbance, selectivity assay for VIM-2 inhibitor project, dose response (AID 1920)
Beta-lactamase [4] = target: Beta-lactamase (Salmonella choleraesuis (strain SC-B67), UniProt Q5J463); experiment: Epi-absorbance-based counterscreen for selective VIM-2 inhibitors: dose response biochemical high throughput screening assay to identify inhibitors of TEM-1 serine-beta-lactamase.
Beta-lactamase [5] = target: T2, Beta-lactamase; experiment: […] counterscreen for selective VIM-2 inhibitors: dose response biochemical high throughput screening assay to identify inhibitors of IMP-1 metallo-beta-lactamase.
Beta Lactamase [6] = target: T1, Beta Lactamase; experiment: VIM-2 CCF2 hydrolysis inhibition, assay artifact filter – biochemical, FRET readout, CCF2 substrate, artefact control for selective VIM-2 inhibitor project, dose response (AID 1926)
Beta-galactosidase = Beta-galactosidase (Escherichia coli, UniProt Q8VNN2); experiment: Dose response counterscreen for EBI2 assay utilizing the enzyme, b-galactosidase.; type: functional
[7] = target: Fructose-bisphosphate aldolase (Mycobacterium tuberculosis, UniProt P9WQA3); experiment: Fluorescence-based biochemical high throughput dose response assay for inhibitors of the fructose-bisphosphate aldolase (FBA) of M. tuberculosis.; type: functional
[8] = target: Sphingosine 1-phosphate receptor 1 (Homo sapiens, UniProt P21453); experiment: Late-stage counterscreen for antagonists of kappa opioid receptor 1 (OPRK1): fluorescence-based cell-based dose response assay to identify antagonists of Sphingosine 1-Phosphate Receptor 1 (S1P1).; type: functional
[9] = target: T3, Scavenger receptor class B member 1 (Mus musculus, UniProt Q61009); experiment: mouse SR-BI DiI-HDL transfer blockers – ldlA[mSR-BI] CHO cells, fluorescence plate reader, dry powder, set 9, dose response (AID 623880); type: functional, cell-based
T3 sequence (Q61009 whole entry): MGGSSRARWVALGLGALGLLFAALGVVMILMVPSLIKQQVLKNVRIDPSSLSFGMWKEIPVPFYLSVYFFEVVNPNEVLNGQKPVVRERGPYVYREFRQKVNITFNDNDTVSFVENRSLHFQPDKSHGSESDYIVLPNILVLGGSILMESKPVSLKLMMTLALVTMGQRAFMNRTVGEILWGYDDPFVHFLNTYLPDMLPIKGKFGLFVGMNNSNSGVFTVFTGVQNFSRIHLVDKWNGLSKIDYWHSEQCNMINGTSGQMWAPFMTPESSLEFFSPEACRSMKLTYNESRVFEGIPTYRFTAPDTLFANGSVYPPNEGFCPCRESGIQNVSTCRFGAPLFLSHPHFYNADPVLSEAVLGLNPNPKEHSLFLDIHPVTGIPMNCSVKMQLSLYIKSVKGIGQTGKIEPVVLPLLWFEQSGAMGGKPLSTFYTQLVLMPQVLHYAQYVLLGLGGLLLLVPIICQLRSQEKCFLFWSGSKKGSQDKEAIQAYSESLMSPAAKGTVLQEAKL

[10] = target: T3, Scavenger receptor class B member 1; experiment: blockers of DiI-HDL lipid transfer via SR-BI – cell-based, ldlA[mSR-BI] CHO, DiI fluorescence, dry powder, set 10, dose response (AID 624029); type: functional
A549 = experiment: viability loss in A549 cells – cell-based, plate reader, cherry-pick samples, cytotoxicity control, dose response (AID 687028); type: functional; details: Homo sapiens
Protein Wnt-3a [11] = target: T4, Protein Wnt-3a (Mus musculus, UniProt P27467); experiment: SAR analysis of small molecule antagonists of Gli-SUFU in a Wnt3a luminescent reporter assay.; type: functional
INS1 = experiment: INS-1E survival protection against cytokine death – cell-based, luminescence, retest, dose response (AID 449756); type: functional; details: Rattus norvegicus;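 also: cell death triggered by IL-1 beta plus TNF-alpha plus IFN-gamma mixture; protective hits raise ATP signal compared with cytokine alone wells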
[12] = non-specific 3'UTR reporter inhibition in Clone20-Shn3RL – cell-based, Renilla luciferase, cherry-picked, counter-screen for Shn3 inhibitor project, dose response (AID 624133); type: functional
[13] = HEK-293T viability loss after treatment – luminescence, T-cell screen hits, cytotoxicity control for TCR NF-kB inhibitor project, dose response (AID 489026); type: functional, cell-based;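 also: cells exposed to compound about 14 hours before the viability readout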
Galanin receptor type 3 = Galanin receptor type 3 (Homo sapiens, UniProt O60755); experiment: Fluorescence-based cell-based primary high throughput dose response assay to identify antagonists of the Galanin Receptor 3 (GalR3).; type: functional
[14] = reduction of Shn3 3'UTR-driven luciferase in osteoblasts – cell-based, Clone20 osteoblasts, firefly luciferase, cherry-picked, dose response (AID 624132); type: functional;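 also: firefly luciferase luminescence from reporter carrying the Shn3 3'UTR in osteoblasts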
Protein Wnt-3a [15] = target: T4, Protein Wnt-3a; experiment: antagonism of Wnt3a pathway luciferase reporter – Wnt-LIGHT cells, luminescence, selectivity assay for Gli-SUFU antagonist project, dose response (AID 651570); type: functional; details: read-out: IC50_Mean;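 also: Wnt-LIGHT reporter cells stimulated with conditioned medium from Wnt3a-producing cells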
[16] = target: T5, High affinity choline transporter 1 (Homo sapiens, UniProt Q9GZV3); experiment: human choline transporter blockers, potency – cell-based, 5-point CRC, membrane potential dye, dose response (AID 504840); type: functional
T5 sequence (Q9GZV3 whole entry): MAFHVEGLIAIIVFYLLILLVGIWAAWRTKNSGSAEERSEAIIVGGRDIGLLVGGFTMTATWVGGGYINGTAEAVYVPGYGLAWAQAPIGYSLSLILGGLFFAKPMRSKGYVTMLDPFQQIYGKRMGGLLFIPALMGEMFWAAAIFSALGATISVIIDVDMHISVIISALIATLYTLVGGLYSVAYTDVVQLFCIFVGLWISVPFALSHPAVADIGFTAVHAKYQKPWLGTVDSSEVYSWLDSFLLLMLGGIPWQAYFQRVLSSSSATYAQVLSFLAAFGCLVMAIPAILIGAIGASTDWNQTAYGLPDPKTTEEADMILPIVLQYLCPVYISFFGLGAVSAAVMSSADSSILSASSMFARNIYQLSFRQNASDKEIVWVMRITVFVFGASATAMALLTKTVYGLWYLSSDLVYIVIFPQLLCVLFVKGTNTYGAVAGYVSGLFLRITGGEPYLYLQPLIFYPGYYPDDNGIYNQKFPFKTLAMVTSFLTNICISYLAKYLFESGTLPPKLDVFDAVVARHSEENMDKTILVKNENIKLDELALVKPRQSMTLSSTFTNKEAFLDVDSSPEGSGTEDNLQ

cells = type: functional, cell-based; details: HEK-CNG
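For EC50 in this document: target is galanin receptor GalR3 read with a cAMP biosensor in HEK293 cells.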

T2 sequence (Q79MP6 whole entry): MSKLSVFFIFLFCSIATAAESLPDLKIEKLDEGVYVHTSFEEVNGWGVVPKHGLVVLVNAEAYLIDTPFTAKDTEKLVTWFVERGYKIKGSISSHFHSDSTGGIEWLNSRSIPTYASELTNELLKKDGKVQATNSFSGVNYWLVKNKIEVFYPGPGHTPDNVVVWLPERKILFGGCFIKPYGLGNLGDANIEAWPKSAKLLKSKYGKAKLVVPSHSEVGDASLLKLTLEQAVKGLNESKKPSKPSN
T4 sequence (P27467 whole entry): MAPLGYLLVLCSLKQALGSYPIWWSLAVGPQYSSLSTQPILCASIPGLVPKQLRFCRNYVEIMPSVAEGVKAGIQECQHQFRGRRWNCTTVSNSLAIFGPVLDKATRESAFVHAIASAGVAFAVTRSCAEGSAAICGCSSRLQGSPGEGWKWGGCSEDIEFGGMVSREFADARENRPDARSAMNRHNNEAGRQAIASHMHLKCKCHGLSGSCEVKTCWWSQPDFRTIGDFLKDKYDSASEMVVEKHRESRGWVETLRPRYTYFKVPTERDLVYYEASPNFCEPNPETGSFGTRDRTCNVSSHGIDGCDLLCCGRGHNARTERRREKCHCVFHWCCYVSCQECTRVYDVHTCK
T1 sequence (Q932Y6 whole entry): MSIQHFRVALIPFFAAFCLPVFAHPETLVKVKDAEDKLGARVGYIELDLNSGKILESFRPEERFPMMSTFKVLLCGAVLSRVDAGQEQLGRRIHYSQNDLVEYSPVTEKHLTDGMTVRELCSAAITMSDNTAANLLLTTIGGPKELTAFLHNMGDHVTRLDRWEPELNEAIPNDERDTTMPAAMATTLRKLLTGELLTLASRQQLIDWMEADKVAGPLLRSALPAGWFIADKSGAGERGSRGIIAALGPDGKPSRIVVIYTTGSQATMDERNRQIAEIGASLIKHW
Sequence of Fructose-bisphosphate aldolase (P9WQA3 whole entry): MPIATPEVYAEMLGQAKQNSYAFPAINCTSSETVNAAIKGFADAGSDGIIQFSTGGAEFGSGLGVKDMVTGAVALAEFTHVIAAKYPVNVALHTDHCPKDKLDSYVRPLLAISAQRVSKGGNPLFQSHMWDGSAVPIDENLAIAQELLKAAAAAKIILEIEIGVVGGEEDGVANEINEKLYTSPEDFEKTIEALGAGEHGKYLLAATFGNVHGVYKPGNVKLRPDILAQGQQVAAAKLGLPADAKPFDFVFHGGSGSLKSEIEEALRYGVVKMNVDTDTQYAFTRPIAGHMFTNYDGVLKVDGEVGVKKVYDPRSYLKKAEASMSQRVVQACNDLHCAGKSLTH
Sequence of Galanin receptor type 3 (O60755 whole entry): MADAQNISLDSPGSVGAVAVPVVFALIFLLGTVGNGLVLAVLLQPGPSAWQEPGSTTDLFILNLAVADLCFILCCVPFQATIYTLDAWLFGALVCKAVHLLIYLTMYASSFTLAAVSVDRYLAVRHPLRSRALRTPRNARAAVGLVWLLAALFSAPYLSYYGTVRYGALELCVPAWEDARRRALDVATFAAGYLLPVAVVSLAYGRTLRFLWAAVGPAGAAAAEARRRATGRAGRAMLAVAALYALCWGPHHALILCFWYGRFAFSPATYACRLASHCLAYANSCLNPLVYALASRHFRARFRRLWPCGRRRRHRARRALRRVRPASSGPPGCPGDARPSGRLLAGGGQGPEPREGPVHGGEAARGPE
Sequence of Beta-galactosidase (Q8VNN2 whole entry): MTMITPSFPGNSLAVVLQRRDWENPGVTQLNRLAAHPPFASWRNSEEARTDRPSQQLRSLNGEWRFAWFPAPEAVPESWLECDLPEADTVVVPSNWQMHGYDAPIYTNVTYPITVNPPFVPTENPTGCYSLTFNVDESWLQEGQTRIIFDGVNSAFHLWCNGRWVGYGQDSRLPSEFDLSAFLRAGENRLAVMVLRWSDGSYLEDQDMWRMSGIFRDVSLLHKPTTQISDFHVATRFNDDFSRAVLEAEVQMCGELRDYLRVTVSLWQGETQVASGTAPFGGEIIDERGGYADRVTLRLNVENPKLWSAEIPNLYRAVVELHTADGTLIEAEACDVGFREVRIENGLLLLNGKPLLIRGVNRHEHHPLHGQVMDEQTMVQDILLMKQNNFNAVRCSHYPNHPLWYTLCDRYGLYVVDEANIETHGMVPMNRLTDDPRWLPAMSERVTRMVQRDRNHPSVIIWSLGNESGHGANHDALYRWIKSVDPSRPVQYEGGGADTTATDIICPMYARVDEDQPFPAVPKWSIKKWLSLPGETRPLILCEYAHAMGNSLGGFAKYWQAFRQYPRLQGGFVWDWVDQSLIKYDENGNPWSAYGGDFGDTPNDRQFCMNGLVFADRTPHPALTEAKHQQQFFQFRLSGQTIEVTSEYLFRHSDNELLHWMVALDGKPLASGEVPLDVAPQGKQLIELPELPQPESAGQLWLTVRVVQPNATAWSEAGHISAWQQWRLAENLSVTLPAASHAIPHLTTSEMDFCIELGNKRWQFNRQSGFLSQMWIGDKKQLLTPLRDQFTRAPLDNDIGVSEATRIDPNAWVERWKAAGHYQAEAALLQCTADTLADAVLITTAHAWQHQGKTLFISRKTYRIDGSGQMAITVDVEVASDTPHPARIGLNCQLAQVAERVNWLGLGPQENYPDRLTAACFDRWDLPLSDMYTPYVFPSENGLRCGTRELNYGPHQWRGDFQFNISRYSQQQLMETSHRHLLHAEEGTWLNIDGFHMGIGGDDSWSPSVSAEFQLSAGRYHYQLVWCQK
Sequence of Sphingosine 1-phosphate receptor 1 (P21453 whole entry): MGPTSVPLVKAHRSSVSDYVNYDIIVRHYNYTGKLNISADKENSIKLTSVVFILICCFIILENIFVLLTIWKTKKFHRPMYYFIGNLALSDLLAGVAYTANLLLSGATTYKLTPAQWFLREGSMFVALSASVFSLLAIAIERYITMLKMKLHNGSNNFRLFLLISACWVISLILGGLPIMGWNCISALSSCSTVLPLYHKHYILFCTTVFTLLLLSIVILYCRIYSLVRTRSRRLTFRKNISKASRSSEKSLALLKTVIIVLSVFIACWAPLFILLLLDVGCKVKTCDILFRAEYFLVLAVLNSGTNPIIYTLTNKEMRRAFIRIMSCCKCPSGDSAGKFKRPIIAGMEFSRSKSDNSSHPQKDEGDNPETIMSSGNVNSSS
Sequence of Beta-lactamase (Salmonella choleraesuis (strain SC-B67), UniProt Q5J463) (Q5J463 whole entry): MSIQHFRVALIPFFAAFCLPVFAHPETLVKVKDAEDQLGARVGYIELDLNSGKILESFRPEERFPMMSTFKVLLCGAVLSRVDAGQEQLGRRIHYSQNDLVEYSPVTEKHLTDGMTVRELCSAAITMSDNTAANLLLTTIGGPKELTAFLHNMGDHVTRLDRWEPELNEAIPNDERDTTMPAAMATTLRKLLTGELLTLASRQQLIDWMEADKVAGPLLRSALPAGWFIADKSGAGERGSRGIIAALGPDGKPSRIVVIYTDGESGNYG

With `O=S(=O)(NC[C@@H]1[C@@H](c2ccccc2)[C@H](CO)N1CC1CC1)c1ccccc1` the AC50 (HEK293) was > 52 µM (inactive) and the AC50 [1] was > 52 µM (inactive).

For `CC(=C/c1ccccc1)/C=N/n1c(C)nnc1S`, the IC50 (Beta Lactamase [2]) was 9.98 µM (active), the IC50 (Beta-lactamase [3]) was > 59.6 µM (inactive) and the IC50 (Beta-lactamase [4]) was > 59.6 µM (inactive). The IC50 (Beta-lactamase [5]) was > 59.6 µM (inactive) and the IC50 (Beta Lactamase [6]) was 2.5 µM (active).

With `COc1ccc(N2CCN(C(=O)c3cc(-c4ccc(F)cc4)[nH]c3C)CC2)cc1` the IC50 (Beta-galactosidase) was > 80 µM (inactive).

In the case of `CN(C)c1nc(OCc2ccccc2)c2ncc(=O)[nH]c2n1`, the IC50 [7] was 2.82 µM (active).

For `CCOC(=O)c1cc(C(=O)OC)c(C)nc1N1CCC(NC2CCCCC2O)CC1` (configuration not stated), the IC50 [8] was > 50 µM (inactive).

For `COc1ccc2c(c1)CC(C1(O)C(=O)N(C)c3ccccc31)C2=O` (configuration not stated), the AC50 [9] was > 70 µM (inactive) and the AC50 [10] was > 70 µM (inactive).

In the case of `Cc1ccccc1S(=O)(=O)N1CC[C@@H]2[C@H](CO)Nc3ccc(-c4cccc(C#N)c4)cc3[C@@H]21`, the AC50 (A549) was 28.8 µM (active).

In the case of `O=C(Nc1cc(N2CCCCC2)ncn1)c1ccccc1Cl`, the IC50 (Protein Wnt-3a [11]) was > 21.8 µM (inactive).

In the case of `CCOC(=O)CC1CCCCN1C(=O)c1cc(COc2cccc3cnccc23)on1` (configuration not stated), the AC50 (INS1) was 5.89 µM (active), the AC50 [12] was 0.67 µM (active) and the IC50 [13] was > 80 µM (inactive). The IC50 (Galanin receptor type 3) was 0.448 µM (active), the AC50 [14] was 0.713 µM (active) and the IC50 (Protein Wnt-3a [15]) was 0.777 µM (active). For the same compound, the IC50 [16] was 11 µM (active) and the EC50 (cells) was > 29.9 µM (inactive).
